The conditions of data set [1]: as described in U.S. Pat. No. 8,163,904; cited from earlier work.
For data set [2] the following is noted: as described in U.S. Pat. No. 8,163,904; cited from earlier work. This is another data set of the same source.
Another data set can be described thus: Hygroscopicity. The format is physicochemical.
Data set [3] is described as follows: Intrinsic dissolution study in 0.1 N HCl. The format is physicochemical. The following applies: at 15 minutes time interval, conventional intrinsic dissolution assembly. The procedure:
Intrinsic dissolution studies were conducted on nilotinib dihydrochloride Form X and nilotinib monohydrochloride monohydrate in 0.1 N HCl using a conventional intrinsic dissolution assembly.

Where a name gives a salt, the structure may show the parent alone. Read-outs that look alike come from different tables or passages of the source.

These results are taken from patent US10301282B2, “Polymorphic form X of nilotinib dihydrochloride hydrate” (Cipla Limited, priority 2015, dated 2019).

Regarding `Cc1cn(-c2cc(NC(=O)c3ccc(C)c(Nc4nccc(-c5cccnc5)n4)c3)cc(C(F)(F)F)c2)cn1` [Form B, nilotinib hydrochloride monohydrate], the hygroscopicity result in data set [1] is “hygroscopic”. For the same compound, the solubility in water result in data set [2] was “very slightly soluble in water”.

For `Cc1cn(-c2cc(NC(=O)c3ccc(C)c(Nc4nccc(-c5cccnc5)n4)c3)cc(C(F)(F)F)c2)cn1` [nilotinib dihydrochloride Form X, nilotinib dihydrochloride hydrate], the hygroscopicity entry in “Hygroscopicity” is given as “substantially non-hygroscopic”. For the same compound, the “release (intrinsic dissolution)” value in data set [3] (dihydrochloride hydrate) turned out to be 109%.

Turning to `Cc1cn(-c2cc(NC(=O)c3ccc(C)c(Nc4nccc(-c5cccnc5)n4)c3)cc(C(F)(F)F)c2)cn1` [nilotinib monohydrochloride monohydrate], the “release (intrinsic dissolution)” value in data set [3] (monohydrochloride monohydrate) came to 114%.
